Test results published in patent US8299049B2, “Compositions comprising an extract of Tiarella polyphylla or compounds isolated therefrom for preventing and treating cancer diseases” (Korea Institute of Bioscience and Biotechnology, priority 2007, dated 2012).

Tests used:
TM4SF5-expressing cells = assay: Immunofluorescence of focal adhesions and actin, TM4SF5-expressing cells; assay type: cell-based; settings: FIG. 15
Experimental: (§1) Cells were treated with DMSO or 20 μM TA for 24 hrs. Then, the cells were plated on 10 μg/ml fibronectin-precoated coverslips and incubated for 2 hrs in the presence of DMSO or 20 μM TA. Subsequently, immunofluorescence staining was performed using pY^397 FAK, pY^118 paxillin, and actin, as described in the literature (Lee, S. Y. et al., Focal adhesion and actin organization by a cross-talk of TM4SF5 with integrin α2 are regulated by serum treatment, Exp Cell Res, 312, pp. 2983-99, 2006). Mounted samples were visualized by a fluorescent microscope (BX51, Olympus, Japan).

TM4SF5-null cells = assay: Immunofluorescence of focal adhesions and actin, TM4SF5-null cells; assay type: cell-based; settings: 20 μM TA
Experimental: as §1

[1] = tested on: TM4SF5-expressing cells (SNU449Tp, SNU449T16); assay: Degree of adhesion on fibronectin-precoated dishes, TM4SF5-expressing cells; assay type: cell-based; settings: 20 μM TA 24 hr, reseeded on fibronectin 1 hr
Experimental: (§2) Thus, it could be thought that TA treatment induces anoikis of TM4SF5-expressing cells. To examine whether TA treatment affected cellular adhesion, the following procedure was performed prior to analysis of TA-meditated cell death, as described in the literature (Yang, X. et al., Palmitoylation supports assembly and function of integrin-tetraspanin complexes, J Cell Biol, 167, pp. 1231-40, 2004).
(§3) Cells were treated with 20 μM TA for 24 hr, and the floating cells were collected and reseeded on fibronectin-precoated dishes for 1 hr before determination of the degree of adhesion.

[2] = tested on: TM4SF5-null cells (SNU449P, SNU449Cp); assay: Degree of adhesion on fibronectin-precoated dishes, TM4SF5-null cells; assay type: cell-based; settings: 20 μM TA 24 hr, reseeded on fibronectin 1 hr
Experimental: as §2, §3

[3] = tested on: SNU449Tp cells expressing TM4SF5; assay: Number of floating cells, SNU449Tp; assay type: cell-based; settings: TA versus DMSO
Source text: (§4) FIG. 17 is a graph showing the number of floating SNU449Cp and SNU449Tp cells, after tiarellic acid (TA) treatment for various time periods;

[4] = tested on: SNU449Cp cells expressing no TM4SF5; assay: Number of floating cells, SNU449Cp; assay type: cell-based; settings: TA versus DMSO
Source text: as §4

[5] = tested on: Akt and caspase-3 in TM4SF5-expressing SNU449T16 cells; assay: Western blotting of cell survival and death-related signaling molecules; assay type: cell-based; settings: various time periods
Experimental: FIG. 18 is the result of Western blotting of cell survival and death-related signaling molecules, after tiarellic acid (TA) treatment for various time periods;
Whole cell lysates from cells under diverse experimental conditions were prepared, as described in the literature (Lee, S. Y. et al., Focal adhesion and actin organization by a cross-talk of TM4SF5 with integrin α2 are regulated by serum treatment, Exp Cell Res, 312, pp. 2983-99, 2006). For example, cells were subjected to electroporation (950 μF, 250 V) with a control GFP, wild-type focal adhesion kinase (FAK), paxillin, p130Cas cDNA. One day after electroporation, cells were treated with TA (20 μM) for the indicated periods. Cells cultured normally or treated with TA at different concentrations for the indicated periods were harvested using RIPA buffer. Control or tumor tissues from nude mice were frozen immediately after surgery using liquid N2. Tissues in the liquid N2 was homogenized using a mortar and pestle, and extracted using 0.1% SDS containing RIPA buffer. […]

[6] = tested on: SNU449Tp and SNU449T16 expressing TM4SF5; assay: Analysis of cellular DNA content (sub-G1), TM4SF5-expressing cells; assay type: cell-based; settings: 20 μM TA, 24 hr
Source text: FIG. 19 is the result of analyzing cellular DNA content, after tiarellic acid (TA) treatment;

[7] = tested on: SNU449T16 cells introduced with GFP control, wild-type FAK, paxillin or p130Cas cDNA; assay: TA-mediated effects under overexpression of focal adhesion molecules; assay type: cell-based
Experimental: (§5) Whole cell lysates from cells under diverse experimental conditions were prepared, as described in the literature (Lee, S. Y. et al., Focal adhesion and actin organization by a cross-talk of TM4SF5 with integrin α2 are regulated by serum treatment, Exp Cell Res, 312, pp. 2983-99, 2006). For example, cells were subjected to electroporation (950 μF, 250 V) with a control GFP, wild-type focal adhesion kinase (FAK), paxillin, p130Cas cDNA. One day after electroporation, cells were treated with TA (20 μM) for the indicated periods. Cells cultured normally or treated with TA at different concentrations for the indicated periods were harvested using RIPA buffer. Control or tumor tissues from nude mice were frozen immediately after surgery using liquid N2. Tissues in the liquid N2 was homogenized using a mortar and pestle, and extracted using 0.1% SDS containing RIPA buffer. Standard Western blots of lysates were performed by using antibody against phospho-Y^397, Y^407, Y^577, Y^861, Y^925 FAK (BioSource International, Inc., Camarillo, Calif.), phospho-Y^416Src, c-Src, p15^INK4B, p16^INK4A (Santa Cruz Biotech., Santa Cruz, Calif.), FAK, p130Cas, paxillin, pY^118paxillin, active caspase-3 (BD Transduct. Lab., San Jose, Calif.), α-tubulin (Sigma, St Louis, Mo.), phopsho-S^473, or T^308Akt, Akt, phospho-Erk1/2, Erk1/2 (Cell Signaling Tech., Danvers, Mass.), and TM4SF5 (homemade).
To evaluate whether overexpression of focal adhesion molecules such as focal adhesion kinase (FAK), paxillin, and p130Cas would block the effects of TA treatment, the following procedure was performed as described in the literature (Lee, S. Y. et al., Focal adhesion and actin organization by a cross-talk of TM4SF5 with integrin α2 are regulated by serum treatment, Exp Cell Res, 312, pp. 2983-99, 2006).
To explore this, each cDNA was introduced into SNU449T16 cells via electroporation. After 1 day, the cells were treated with 20 μM TA for 24 hrs to obtain lysates. […] Therefore, the TA-mediated effects on TM4SF5-expressing cells could be overcome to a certain degree by overexpression of focal adhesion molecules. On the other hand, changes in Erk1/2 activation were not observed under each experimental condition, thereby understanding TA-mediated effects on signal transduction in this experimental system.

[8] = tested on: TM4SF5-expressing SNU449T16 cells tumors; assay: TM4SF5-mediated tumor formation in nude mice; assay type: in vivo; settings: for tumor volumes decreased to: 30 days
Experimental: (§6) 4-5 week old female nude mice (BALB/cAnNCrjBgi-nu) were purchased from Orient. Co. Ltd. (Seongnam, Korea). The mice were housed in a specific pathogen-free room under controlled temperature and humidity. All animal procedures were performed in accordance with the procedures in Seoul National University Laboratory Animal Maintenance Manual and with IRB agreement. Mice aged 5-6 weeks were injected subcutaneously with 5×10^6 viable SNU449Cp or SNU449T16 cells. Tumor volumes were measured with a caliper and calculated using the following Mathematical Formula 1. When the tumor volume reached 200 mm^3, mice were injected intraperitoneally with 3 mg/kg or 30 mg/kg (body weight) of tiarellic acid (TA) every other day for 30 days. (Width×Length^2)/2 [Mathematical Formula 1]
Width: minimal diameter (mm)
Length: maximal diameter (mm)
(§7) To evaluate whether tiarellic acid (TA) administration might interfere with TM4SF5 mediated tumor formation in nude mice, the following experiment was performed as described in the literature (Lee S-A et al., TM4SF5-mediated transmodulation between cytosolic p27Kip1 and Rho GTPases and epithelial-mesenchymal transition cause loss of contact inhibition, Cancer Cell, 2007).

[9] = tested on: Akt, p15INK4B, p16INK4A, caspase-3 in TM4SF5-mediated tumor tissue; assay: Western blot and immunohistochemical staining of tumor tissue from nude mice; assay type: in vivo
Experimental: as §5, §6, §7

[10] = Body weight and toxic side effects in tumor-bearing nude mice; assay type: in vivo; settings: 3 or 30 mg/kg i.p. every other day, 30 days
Experimental: as §6, §7

[11] = Western blot, TA administration

C=C(C)C1CC[C@]2(C)CC[C@]3(C(=O)O)C(CCC4[C@@]5(C)CC[C@H](O)[C@@](C)(CO)C5CC[C@]43C)C12 (stereo partly drawn) [tiarellic acid (TA), 3,23-dihydroxy-20(29)-lupen-27-oic acid]
actin organization and stress fibers (TM4SF5-expressing cells): abnormal actin organization with insignificant stress fibers
focal adhesion formation (TM4SF5-null cells): did not affect
adhesion [1]: significantly reduced adhesions
adhesion [2]: not affected
number of floating cells [3]: increased
number of floating cells [4]: did not affect
Akt and caspase-3 activity [5]: Akt inactivation and caspase-3 activation
sub-G1 populations (cellular DNA content) [6]: significant sub-G1 populations
TA-mediated increases in the sub-G1 population under overexpression ([7]; SNU449T16 overexpressing focal adhesion molecules): blocked
focal adhesion molecule and caspase-3 activity ([7]; SNU449T16 with control plasmid (GFP), 20 μM TA): time-dependent inactivation of focal adhesion molecules and activation of caspase-3
TA-mediated effects under overexpression ([7]; SNU449T16 with wild-type FAK, paxillin, or p130Cas, 20 μM TA): certain degrees of blocking
changes in Erk1/2 activation ([7]; each experimental condition): not observed
tumor volumes decreased to ([8]; 3 mg/kg body weight i.p. every other day): 46.0%
tumor volumes decreased to ([8]; 30 mg/kg body weight i.p. every other day): 22.1%
TM4SF5-mediated tumor formation ([8]; intraperitoneally every other day for 30 days, established tumors ~200 mm^3): decreased
Akt activation in tumor tissue [9, 11]: decreased
caspase-3 activation in tumor tissue [9, 11]: enhanced
p15INK4B or p16INK4A CKI levels in tumor tissue [9, 11]: increased
immunohistochemical staining for active caspase-3 ([9]; tumor tissue from TA-treated mice): positive
body weight [10]: increased normally
toxic side effects [10]: no significant toxic side effects
